Results taken from PMC10571957, “αV-Integrin-Dependent Inhibition of Glioblastoma Cell Migration, Invasion and Vasculogenic Mimicry by the uPAcyclin Decapeptide” (Cancers, 2023).

Key:
Format in all cases: cell-based, human
[1] = tested on: U251-MG cells; test: Vasculogenic mimicry (tube formation on Geltrex), U251-MG; details: 24 h
Procedure: The tube formation assay was performed in 96-well plates pre-coated with 50 µL/well of Geltrex^TM (Thermofisher, Scientific, Waltham, MA, USA), and polymerized for 30 min at 37 °C. Briefly, 3 × 10^4 U87-MG, 1.5 × 10^4 U251, and 1 × 10^4 C6 cells/100µL/well were plated onto Geltrex^TM and monitored at 37 °C for the indicated times. The specific effectors were included at time 0. The formation of vascular-like structures by Geltrex^TM-plated U87-MG and U251-MG cells was monitored for 24 h, whereas C6 cells were tested for 16 h. The evaluation of the branching point number, defined as the intersection of at least 3 tubes [24], was performed using the Inverted Microscope DMI Leica 6000 for the U87-MG and U251-MG cells and the Inverted Microscope Axiovert 25 for the C6 cells. At the indicated times, the number of “branching points” was assessed in 4/5 random fields using the ImageJ 1.52a Software.
(§1) Figure 8 Vascular mimicry formation and VE-cadherin expression inhibited by uPAcyclin in U251-MG cells. […] (B) The quantitation of the branching point number is described in the legend to Figure 6B. […] The densitometric quantitation of VE-cadherin bands is shown (right panel) (* p-value < 0.05; *** p-value < 0.001).

[2] = tested on: VE-cadherin; test: VE-cadherin expression in matrix-recovered U251-MG cells (Western blot); details: 1 µM uPAcyclin, VM-forming U251-MG, 24 h
Excerpt: Whole cells were lysed as described, and resolved by SDS-PAGE, followed by Western blotting with PVDF membranes (Millipore, Burlington, MA, USA). The filters were probed with the following antibodies: polyclonal anti-VE Cadherin (Bioss Antibodies, Woburn, MA, USA), polyclonal anti-αV (Millipore), polyclonal anti-GAPDH (Elabscience, Houston, TX, USA), and polyclonal anti-actin (Sigma-Aldrich, St. Louis, MO, USA). Then, goat anti-rabbit IgG-HRP (Sigma) or goat anti-mouse IgG-HRP (Santa Cruz Biotechnology, Dallas, TX, USA) were employed as secondary antibodies. […] Films were imaged using the CanoScan 4400F (Canon, Tokyo, Japan) at 300 dpi, with the Adobe Photoshop Creative Suite 2 or CS2, and bands were quantified with the ImageJ 1.52a software (NIH, Bethesda, MD, USA).
To analyze matrix-embedded U251-MG cells, cells undergoing VM for 24 h were extracted using a 2× mixture of Trypsin, Accutase, and Dispase (1:1:1), acting for 45 min at 37 °C. […] The supernatants were collected and the protein concentration was quantified using the Bradford assay (Biorad, Hercules, CA, USA).
as §1

[3] = tested on: U138-MG cells; test: Cell viability/proliferation (Trypan blue), U138-MG; details: 1 nM or 100 nM, 72–96 h
Procedure: Cell viability was tested in DMEM/10% FBS, in the presence of 1 nM or 100 nM uPAcyclin, either by Trypan blue exclusion or by thiazolyl blue tetrazolium bromide (MTT) assays, as specified in the figure legends. For the Trypan blue assay, 4 × 10^4 U87-MG, U251-MG, U138-MG, and C6 cells/sample were grown in 12-well plates, and followed for 24, 48 and 72 h. As a negative control, the cells were grown in a serum-free medium. Then, the cells were detached, stained with a 0.2% (w/v) Trypan blue solution, counted using a Burker chamber (T0 = 100%), and reported as number of viable cells/total.

## Ac-K^1P[ESPPEELK^10]-NH2 (sidechain bridge or staple) [uPAcyclin]
[1]; 1 nM
  branching number per field decreased to: 20%
[1]; 100 nM
  branching number per field decreased to: 15%
[2]
  VE-cadherin expression: markedly reduced
[3]
  proliferation/viability: unaffected by uPAcyclin, regardless of the concentration employed
